What all share (assay): relative viability (nuclei count vs DMSO), 5 days (fraction); higher = more cells survive
Compound in assay [1]: Cn1cnc2c(F)c(Nc3ccc(Br)cc3Cl)c(C(=O)NOCCO)cc21 [Selumetinib] + CC1(C)CCC(c2ccc(Cl)cc2)=C(CN2CCN(c3ccc(C(=O)NS(=O)(=O)c4ccc(N[C@H](CCN5CCOCC5)CSc5ccccc5)c(S(=O)(=O)C(F)(F)F)c4)cc3)CC2)C1 [Navitoclax] (partner 0.5 µM)
The procedure, abridged: (§1)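 Lung cancer cell lines in 1536-well plates got either a single drug or a fixed anchor-drug dose together with five library-drug doses (not always all listed) in √10 steps, by pin tool, on the day after seeding. Nuclei were counted after 5 days, and relative viability is the treated-to-vehicle ratio of nuclei counts. Values are medians of duplicate plates.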

Compound in assay [2]: CC1(C)CCC(CN2CCN(c3ccc(C(=O)NS(=O)(=O)c4ccc(NCC5CCOCC5)c([N+](=O)[O-])c4)c(Oc4cnc5[nH]ccc5c4)c3)CC2)=C(c2ccc(Cl)cc2)C1 [Venetoclax] + C[C@@H](Oc1cc(-c2cnn(C3CCNCC3)c2)cnc1N)c1c(Cl)ccc(F)c1Cl [Crizotinib] (partner 1 µM)
The procedure, abridged: as §1

Compound in assay [3]: Cn1cnc2c(F)c(Nc3ccc(Br)cc3Cl)c(C(=O)NOCCO)cc21 [Selumetinib] + CCNC(=O)c1noc(-c2cc(C(C)C)c(O)cc2O)c1-c1ccc(CN2CCOCC2)cc1 [Luminespib] (partner 0.01 µM)
Summed up: as §1

Compound in assay [4]: Cn1cnc2c(F)c(Nc3ccc(Br)cc3Cl)c(C(=O)NOCCO)cc21 [Selumetinib] + Cc1nc(Nc2ncc(C(=O)Nc3c(C)cccc3Cl)s2)cc(N2CCN(CCO)CC2)n1 [Dasatinib] (partner 0.075 µM)
Summed up:
as §1

Take HCC-44: the relative viability in assay [1] (first compound 0.02 µM) worked out at 0.986; in assay [1] (first compound 0.06325 µM), 0.847; in assay [1] (first compound 0.2 µM) it was 0.794; in assay [1] (first compound 0.6325 µM) it was 0.836; in assay [2] (first compound 0.01 µM) it was 0.748; in assay [2] (first compound 0.03162 µM), 0.852. Moreover, the relative viability came to 0.83 in assay [2] (first compound 0.1 µM); 0.778 in assay [2] (first compound 0.3162 µM); 0.762 in assay [2] (first compound 1 µM); 1.33 in assay [3] (first compound 0.02 µM); 1.03 in assay [3] (first compound 0.06325 µM); 0.909 in assay [3] (first compound 0.2 µM). Besides, the relative viability in assay [3] (first compound 0.6325 µM) was 0.519.

As to HCC-78, the relative viability is 0.77 in assay [1] (first compound 0.02 µM); 0.758 in assay [1] (first compound 0.06325 µM); 0.69 in assay [1] (first compound 0.2 µM); 0.738 in assay [1] (first compound 0.6325 µM); 0.315 in assay [2] (first compound 0.01 µM); 0.338 in assay [2] (first compound 0.03162 µM). The relative viability is 0.307 in assay [2] (first compound 0.1 µM); 0.393 in assay [2] (first compound 0.3162 µM); 0.362 in assay [2] (first compound 1 µM); 0.395 in assay [4] (first compound 0.02 µM); 0.344 in assay [4] (first compound 0.06325 µM); 0.347 in assay [4] (first compound 0.2 µM). Further, the relative viability in assay [4] (first compound 0.6325 µM) stood at 0.364.

In the case of HCC-366, the relative viability in assay [1] (first compound 0.02 µM) worked out at 1.11; in assay [1] (first compound 0.06325 µM), 0.954; in assay [1] (first compound 0.2 µM), 0.917; in assay [1] (first compound 0.6325 µM), 0.757; in assay [2] (first compound 0.01 µM) it was 0.502; in assay [2] (first compound 0.03162 µM) it was 0.609. Also, the relative viability came out at 0.621 in assay [2] (first compound 0.1 µM); 0.505 in assay [2] (first compound 0.3162 µM); 0.388 in assay [2] (first compound 1 µM); 0.501 in assay [4] (first compound 0.02 µM); 0.566 in assay [4] (first compound 0.06325 µM); 0.456 in assay [4] (first compound 0.2 µM). Also, in assay [4] (first compound 0.6325 µM), the relative viability was 0.367.

Consider HCC-827, for which the relative viability in assay [1] (first compound 0.02 µM) came out at 0.978; in assay [1] (first compound 0.06325 µM), 1.04; in assay [1] (first compound 0.2 µM), 1.03; in assay [1] (first compound 0.6325 µM), 1.04; in assay [2] (first compound 0.01 µM) it was 0.982; in assay [2] (first compound 0.03162 µM), 0.923. Also, the relative viability in assay [2] (first compound 0.1 µM) was determined as 0.924; in assay [2] (first compound 0.3162 µM), 0.94; in assay [2] (first compound 1 µM) it was 0.837; in assay [3] (first compound 0.02 µM), 0.621; in assay [3] (first compound 0.06325 µM), 0.694; in assay [3] (first compound 0.2 µM), 0.438. Moreover, the relative viability was 0.244 in assay [3] (first compound 0.6325 µM); 0.24 in assay [4] (first compound 0.02 µM); 0.331 in assay [4] (first compound 0.06325 µM); 0.26 in assay [4] (first compound 0.2 µM); 0.294 in assay [4] (first compound 0.6325 µM).

As to HOP-62, the relative viability amounted to 1.01 in assay [1] (first compound 0.02 µM); 0.997 in assay [1] (first compound 0.06325 µM); 0.929 in assay [1] (first compound 0.2 µM); 0.517 in assay [1] (first compound 0.6325 µM); 0.896 in assay [2] (first compound 0.01 µM); 0.867 in assay [2] (first compound 0.03162 µM). Further, the relative viability in assay [2] (first compound 0.1 µM) was found to be 0.79; in assay [2] (first compound 0.3162 µM), 1.1; in assay [2] (first compound 1 µM), 0.83; in assay [3] (first compound 0.02 µM), 0.862; in assay [3] (first compound 0.06325 µM) it was 0.754; in assay [3] (first compound 0.2 µM) it was 0.656. Besides, the relative viability in assay [3] (first compound 0.6325 µM) stood at 0.384; in assay [4] (first compound 0.02 µM), 0.583; in assay [4] (first compound 0.06325 µM), 0.526; in assay [4] (first compound 0.2 µM), 0.387; in assay [4] (first compound 0.6325 µM) it was 0.249.

Regarding IA-LM, the relative viability turned out to be 0.566 in assay [1] (first compound 0.02 µM); 0.398 in assay [1] (first compound 0.06325 µM); 0.284 in assay [1] (first compound 0.2 µM); 0.315 in assay [1] (first compound 0.6325 µM); 0.727 in assay [2] (first compound 0.01 µM); 0.709 in assay [2] (first compound 0.03162 µM). For the same cell line, the relative viability worked out at 0.584 in assay [2] (first compound 0.1 µM), 0.848 in assay [2] (first compound 0.3162 µM) and 0.708 in assay [2] (first compound 1 µM).

For the cell line LC-2-ad, the relative viability in assay [1] (first compound 0.02 µM) was 0.4; in assay [1] (first compound 0.06325 µM), 0.359; in assay [1] (first compound 0.2 µM), 0.442; in assay [1] (first compound 0.6325 µM), 0.46; in assay [2] (first compound 0.01 µM) it was 0.46; in assay [2] (first compound 0.03162 µM) it was 0.465. Further, the relative viability in assay [2] (first compound 0.1 µM) was determined as 0.439; in assay [2] (first compound 0.3162 µM) it was 0.466; in assay [2] (first compound 1 µM), 0.51; in assay [3] (first compound 0.02 µM), 0.912; in assay [3] (first compound 0.06325 µM) it was 0.882; in assay [3] (first compound 0.2 µM), 0.88. Further, the relative viability is 0.83 in assay [3] (first compound 0.6325 µM); 0.724 in assay [4] (first compound 0.02 µM); 0.501 in assay [4] (first compound 0.06325 µM); 0.427 in assay [4] (first compound 0.2 µM); 0.559 in assay [4] (first compound 0.6325 µM).

For the cell line LCLC-97TM1, the relative viability amounted to 0.497 in assay [1] (first compound 0.02 µM); 0.606 in assay [1] (first compound 0.06325 µM); 0.368 in assay [1] (first compound 0.2 µM); 0.309 in assay [1] (first compound 0.6325 µM); 0.306 in assay [2] (first compound 0.03162 µM); 0.342 in assay [2] (first compound 0.1 µM). Moreover, the relative viability in assay [2] (first compound 0.3162 µM) is 0.301; in assay [2] (first compound 1 µM), 0.312; in assay [3] (first compound 0.02 µM), 0.79; in assay [3] (first compound 0.06325 µM), 0.622; in assay [3] (first compound 0.2 µM), 0.415; in assay [3] (first compound 0.6325 µM), 0.411. The relative viability was determined as 0.866 in assay [4] (first compound 0.02 µM), 0.674 in assay [4] (first compound 0.06325 µM), 0.543 in assay [4] (first compound 0.2 µM) and 0.272 in assay [4] (first compound 0.6325 µM).

Turning to LCLC-103H, the relative viability in assay [2] (first compound 0.01 µM) is 1.05; in assay [2] (first compound 0.03162 µM), 1.2; in assay [2] (first compound 0.1 µM), 1.04; in assay [2] (first compound 0.3162 µM), 0.985; in assay [2] (first compound 1 µM), 1.05; in assay [3] (first compound 0.02 µM) it was 0.922. The relative viability in assay [3] (first compound 0.06325 µM) is 0.876; in assay [3] (first compound 0.2 µM), 0.831; in assay [3] (first compound 0.6325 µM), 0.697; in assay [4] (first compound 0.02 µM) it was 0.524; in assay [4] (first compound 0.06325 µM) it was 0.505; in assay [4] (first compound 0.2 µM), 0.568. Also, the relative viability in assay [4] (first compound 0.6325 µM) was 0.491.

Source of the values: the supplement of paper PMC10307832.
